Data on 16 compounds can be found in patent US9840507B2, “5,6-dihydro-imidazo[1,2-a]pyrazin-8-ylamine derivatives useful as inhibitors of beta-secretase (BACE)” (Janssen Pharmaceutica, NV, priority 2010, dated 2017).

Assay [1] relates to Aβ42 produced and secreted into the medium of human neuroblastoma SKNBE2 cells. As to the kind of experiment: Cellular αlisa assay in SKNBE2 cells, Aβ42. In kind it is cell-based. The following applies: for IC50: Homo sapiens, SKNBE2, 18 h, read-out: Cellular αlisa assay in SKNBE2 cells Aβ42 pIC50 (converted). The method, then:
(§1) In two αlisa assays the levels of Aβtotal and Aβ42 produced and secreted into the medium of human neuroblastoma SKNBE2 cells are quantified. The assay is based on the human neuroblastoma SKNBE2 expressing the wild type Amyloid Precursor Protein (hAPP695). The compounds are diluted and added to these cells, incubated for 18 hours and then measurements of Aβ42 and Aβtotal are taken. Aβtotal and Aβ42 are measured by sandwich αlisa. αlisa is a sandwich assay using biotinylated antibody AbN/25 attached to streptavidin coated beads and antibody Ab4G8 or cAb42/26 conjugated acceptor beads for the detection of Aβtotal and Aβ42 respectively. In the presence of Aβtotal or Aβ42, the beads come into close proximity. The excitation of the Donor beads provokes the release of singlet oxygen molecules that triggers a cascade of energy transfer in the Acceptor beads, resulting in light emission. Light emission is measured after 1 hour incubation (excitation at […] and emission at 615 nm).
(§2) A best-fit curve is fitted by a minimum sum of squares method to the plot of % Controlmin versus compound concentration.
(§3) LC=Median of the low control values
(§4) =Low control: cells preincubated without compound, without biotinylated Ab in the αlisa
(§5) HC=Median of the High control values
(§6) =High Control: cells preincubated without compound % Effect=100−[(sample−LC)/(HC−LC)*100] % Control=(sample/HC)*100% % Controlmin=(sample−LC)/(HC−LC)*100

Assay [2] deals with Aβtotal produced and secreted into the medium of human neuroblastoma SKNBE2 cells. Kind of assay: Cellular αlisa assay in SKNBE2 cells, Aβtotal. The following applies: for IC50: Homo sapiens, SKNBE2, 18 h, read-out: Cellular αlisa assay in SKNBE2 cells Aβtotal pIC50 (converted). It is filed as cell-based. As to the method:
as §1, §2, §3, §4, §5, §6

The test system of assay [3] is brain levels of soluble Aβ42. Kind of assay: In vivo efficacy: brain Aβ42 lowering (ELISA). On the set-up: species or system mouse. To be noted: 30 mpk. An excerpt: (§7) To determine whether acute administration of an Aβ42 peptide lowering agent would reduce Aβ peptide levels in vivo, non-transgenic rodents, e.g. mice or rats were used. Animals treated with the Aβ peptide lowering agent were examined and compared to those untreated or treated with vehicle and brain levels of soluble Aβ42 and total Aβ were quantitated by standard techniques, for example, using ELISA. Treatment periods varied from hours (h) to days and were adjusted based on the results of the Aβ42 lowering once a time course of onset of effect could be established.
(§8) A typical protocol for measuring Aβ42 lowering in vivo is shown but it is only one of many variations that could be used to optimize the levels of detectable Aβ. For example, Aβpeptide lowering compounds were formulated in 20% hydroxypropyl β cyclodextrin. The Aβ peptide lowering agents were administered as a single oral dose (p.o.) or a single subcutaneous dose (s.c.) to overnight fasted animals. After a certain time, usually 2 or 4 h (as indicated in Table 19), the animals were sacrificed and Aβ42 levels were analysed.
(§9) Blood was collected by decapitation and exsanguinations in EDTA-treated collection tubes. Blood was centrifuged at 1900 g for 10 minutes (min) at 4° C. and the plasma recovered and flash frozen for later analysis. The brain was removed from the cranium and hindbrain. The cerebellum was removed and the left and right hemisphere were separated. The left hemisphere was stored at −18° C. for quantitative analysis of test compound levels. The right hemisphere was rinsed with phosphate-buffered saline (PBS) buffer and immediately frozen on dry ice and stored at −80° C. until homogenization for biochemical assays.
(§10) Mouse brains from non-transgenic animals were resuspended in 8 volumes of 0.4% DEA (diethylamine)/50 mM NaCl containing protease inhibitors (Roche-11873580001 or 04693159001) per gram of tissue, e.g. for 0.158 g brain, add 1.264 ml of 0.4% DEA. All samples were homogenized in the FastPrep-24 system (MP Biomedicals) using lysing matrix D (MPBio #6913-100) at 6 m/s for 20 seconds. Homogenates were centrifuged at 221.300×g for 50 min. The resulting high speed supernatants were then transferred to fresh eppendorf tubes. Nine parts of supernatant were neutralized with 1 part 0.5 M Tris-HCl pH 6.8 and used to quantify Aβtotal and Aβ42.
(§11) To quantify the amount of Aβtotal and Aβ42 in the soluble fraction of the brain homogenates, Enzyme-Linked-Immunosorbent-Assays were used. Briefly, the standards (a dilution of synthetic Aβ1-40 and Aβ1-42, Bachem) were prepared in 1.5 ml Eppendorf tube in Ultraculture, with final concentrations ranging from 10000 to 0.3 pg/ml. The samples and standards were co-incubated with HRPO-labelled N-terminal antibody for Aβ42 detection and with the biotinylated mid-domain antibody 4G8 for Aβtotal detection. 50 μl of conjugate/sample or conjugate/standards mixtures were then added to the antibody-coated plate (the capture antibodies selectively recognize the C-terminal end of Aβ42, antibody JRF/cAβ42/26, for Aβ42 detection and the N-terminus of Aβ, antibody JRF/rAβ/2, for Aβtotal detection). The plate was allowed to incubate overnight at 4° C. in order to allow formation of the antibody-amyloid complex. Following this incubation and subsequent wash steps the ELISA for Aβ42 quantification was finished by addition of Quanta Blu fluorogenic peroxidase substrate according to the manufacturer's instructions (Pierce Corp., Rockford, Il). A reading was performed after 10 to 15 min (excitation 320 nm/emission 420 nm).
In this model at least 20% Aβ42 lowering compared to untreated animals would be advantageous.
Background: An ELISA detects its analyte on a solid surface through an enzyme-linked reagent.

Assay [4] deals with brain levels of total Aβ. Kind of assay: In vivo efficacy: brain Aβtotal lowering (ELISA). Set-up: species or system mouse. To be noted: 30 mpk.
From the text: as §7, §8, §9, §10, §11
For Aβtotal detection, a Streptavidine-Peroxidase-Conjugate was added, followed 60 min later by an additional wash step and addition of Quanta Blu fluorogenic peroxidase substrate according to the manufacturer's instructions (Pierce Corp., Rockford, Il). A reading was performed after 10 to 15 min (excitation 320 nm/emission 420 nm).

The target of assay [5] is T1, recombinant BACE1 protein (Homo sapiens, UniProt P56817).
T1 construct: recombinant BACE1 protein in a final concentration of 1 μg/ml
Kind of assay: Biochemical FRET based assay. The following applies: recombinant BACE1 1 μg/ml, 10 μm substrate, 120 minutes, room temperature, pH 5.0; for IC50: read-out: Biochemical FRET based assay pIC50 (converted).
From the text: This assay is a Fluorescence Resonance Energy Transfer Assay (FRET) based assay. The substrate for this assay is an APP derived 13 amino acids peptide that contains the ‘Swedish’ Lys-Met/Asn-Leu mutation of the amyloid precursor protein (APP) β-secretase cleavage site. This substrate also contains two fluorophores: (7-methoxycoumarin-4-yl) acetic acid (Mca) is a fluorescent donor with excitation wavelength at 320 nm and emission at 405 nm and 2,4-Dinitrophenyl (Dnp) is a proprietary quencher acceptor. […] Upon cleavage by BACE1, the fluorophore Mca is separated from the quenching group Dnp, restoring the full fluorescence yield of the donor. The increase in fluorescence is linearly related to the rate of proteolysis (Koike H et al. J. Biochem. 1999, 126, 235-242).
Briefly in a 384-well format recombinant BACE1 protein in a final concentration of 1 μg/ml is incubated for 120 minutes at room temperature with 10 μm substrate in incubation buffer (40 mM Citrate buffer pH 5.0, 0.04% PEG, 4% DMSO) in the absence or presence of compound. Next the amount of proteolysis is directly measured by fluorescence measurement at T=0 and T=120 (excitation at 320 nm and emission at 405 nm).
as §3
=Low control: Reaction without enzyme
as §5
=High Control: Reaction with enzyme % Effect=100−[(sample−LC)/(HC−LC)*100] % Control=(sample/HC)*100% % Controlmin=(sample−LC)/(HC−LC)*100

The mark [6] stands for this setting: SKNBE2 cells expressing hAPP695, incubated for 18 hours.

Read-outs that look alike come from different tables or passages of the source.

T1 sequence (P56817 46-501): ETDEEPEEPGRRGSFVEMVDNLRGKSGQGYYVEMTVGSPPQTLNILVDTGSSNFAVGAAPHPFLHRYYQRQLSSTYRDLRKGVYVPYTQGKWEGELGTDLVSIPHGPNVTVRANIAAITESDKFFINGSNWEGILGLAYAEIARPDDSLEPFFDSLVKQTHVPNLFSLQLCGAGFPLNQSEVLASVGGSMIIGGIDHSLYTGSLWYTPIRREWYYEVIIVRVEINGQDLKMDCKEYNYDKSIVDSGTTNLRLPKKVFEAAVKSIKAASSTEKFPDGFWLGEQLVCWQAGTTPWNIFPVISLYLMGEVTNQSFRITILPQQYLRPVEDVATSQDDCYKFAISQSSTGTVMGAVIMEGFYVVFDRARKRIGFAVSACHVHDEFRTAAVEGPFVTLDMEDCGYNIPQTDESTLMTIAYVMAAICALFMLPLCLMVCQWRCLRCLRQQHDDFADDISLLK

As to `C[C@@]1(c2cc(NC(=O)c3ccc(C#N)cn3)ccc2F)Cn2ccnc2C(N)=N1` [Compound 18], the IC50 was 6.31 nM in assay [1] (setting [6]) and 5.62 nM in assay [2] (setting [6]). Besides, the “Aβ42 (% Ctrl)_Mean” value in assay [3] (p.o., 2 h after administration) was determined as 38 % Ctrl. For the same compound, the “Aβtotal (% Ctrl)_Mean” value in assay [4] (p.o., 2 h after administration) is listed as 52 % Ctrl.

As to `C[C@@]1(c2cc(NC(=O)c3ncc(C#N)cc3Cl)ccc2F)Cn2ccnc2C(N)=N1` [Compound 21], the IC50 is 49 nM in assay [5], 9.33 nM in assay [1] (setting [6]) and 9.55 nM in assay [2] (setting [6]). For the same compound, in assay [3] (s.c., 2 h after administration), the “Aβ42 (% Ctrl)_Mean” value is reported as 33 % Ctrl. Besides, the “Aβtotal (% Ctrl)_Mean” value in assay [4] (s.c., 2 h after administration) was found to be 7 % Ctrl.

On to `COc1cnc(C(=O)Nc2ccc(F)c(C3(C)Cn4ccnc4C(N)=N3)c2)cn1` (single isomer, unassigned) [Compound 9], for which the IC50 in assay [5] was 148 nM; in assay [1] (setting [6]), 35.5 nM; in assay [2] (setting [6]) it was 31.6 nM. Moreover, the “Aβ42 (% Ctrl)_Mean” value in assay [3] (p.o., 2 h after administration) worked out at 40 % Ctrl; in assay [3] (s.c., 2 h after administration), 57 % Ctrl. In addition, the “Aβtotal (% Ctrl)_Mean” value came out at 63 % Ctrl in assay [4] (p.o., 2 h after administration) and 49 % Ctrl in assay [4] (s.c., 2 h after administration).

Consider `C[C@@]1(c2cc(NC(=O)c3ccc(F)cn3)ccc2F)Cn2cc(C(F)(F)F)nc2C(N)=N1` [Compound 24], for which the IC50 in assay [5] is 132 nM; in assay [1] (setting [6]), 38.9 nM; in assay [2] (setting [6]), 33.9 nM. In addition, the “Aβ42 (% Ctrl)_Mean” value in assay [3] (s.c., 4 h after administration) is given as 50 % Ctrl. Moreover, the “Aβtotal (% Ctrl)_Mean” value in assay [4] (s.c., 4 h after administration) is listed as 67 % Ctrl.

Consider `Cc1nc(C(=O)Nc2ccc(F)c([C@]3(C)Cn4ccnc4C(N)=N3)c2)co1` [Compound 43], for which the IC50 is 186 nM in assay [5], 38 nM in assay [1] (setting [6]) and 42.7 nM in assay [2] (setting [6]).

For the compound `C[C@@]1(c2cc(NC(=O)c3ccsn3)ccc2F)Cn2cc(C(F)(F)F)nc2C(N)=N1` [Compound 40], the IC50 was 229 nM in assay [5], 87.1 nM in assay [1] (setting [6]) and 91.2 nM in assay [2] (setting [6]).

For the compound `C[C@@]1(c2cc(NC(=O)c3ccsn3)ccc2F)Cn2ccnc2C(N)=N1` [Compound 45], the IC50 was 427 nM in assay [5], 66.1 nM in assay [1] (setting [6]) and 67.6 nM in assay [2] (setting [6]).

`CCOc1cnc(C(=O)Nc2ccc(F)c([C@]3(C)Cn4ccnc4C(N)=N3)c2)cn1` [Compound 23]: the IC50 in assay [5] is 457 nM; in assay [1] (setting [6]), 25.1 nM; in assay [2] (setting [6]), 37.2 nM.

`COc1ccc(C(=O)Nc2ccc(F)c([C@]3(C)Cn4ccnc4C(N)=N3)c2)nc1` [Compound 17]: the IC50 in assay [5] is 107 nM; in assay [1] (setting [6]), 17.4 nM; in assay [2] (setting [6]), 16.6 nM.

For `CC1(c2cccc(-c3cc(Cl)cc(Cl)c3)c2)Cn2ccnc2C(N)=N1` (racemic) [Compound 3, rac-6-(3′,5′-dichloro-biphenyl-3-yl)-6-methyl-5,6-dihydro-imidazo[1,2-a]pyrazin-8-ylamine], the IC50 was 26900 nM in assay [5], 7940 nM in assay [1] and 7080 nM in assay [2].

For the compound `C[C@@]1(c2cc(NC(=O)c3ccc(C#N)cn3)ccc2F)Cn2cc(C(F)F)nc2C(N)=N1` [Compound 49], the IC50 was 97.7 nM in assay [5], 8.51 nM in assay [1] (setting [6]) and 9.33 nM in assay [2] (setting [6]).

On to `C[C@@]1(c2cc(NC(=O)c3ccc(F)cn3)ccc2F)Cn2cc(C#N)nc2C(N)=N1` [Compound 56, (R)—N-{3-[8-amino-2-cyano-6-methyl-5,6-dihydroimidazo[1,2-a]pyrazin-6-yl]-4-fluorophenyl}-5-fluoropyridine-2-carboxamide], for which the values for the IC50 in assay [5], in assay [1] (setting [6]) and in assay [2] (setting [6]) were 83.2 nM, 20.9 nM and 21.9 nM, respectively.

Consider `C[C@@]1(c2cc(NC(=O)c3ncc(Cl)cc3Cl)ccc2F)Cn2cc(C(F)(F)F)nc2C(N)=N1` [Compound 25], for which the IC50 in assay [5] was 46.8 nM; in assay [1] (setting [6]), 21.9 nM; in assay [2] (setting [6]), 17 nM.

`C[C@@]1(c2cccc(-c3cncnc3)c2)Cn2ccnc2C(N)=N1` [Compound 4, (R)-6-methyl-6-(3-pyrimidin-5-yl-phenyl)-5,6-dihydro-imidazo[1,2-a]pyrazin-8-ylamine]: the “Biochemical FRET based assay pIC50” value in assay [5] is given as over 4.52. The IC50 in assay [1] (setting [6]) and in assay [2] (setting [6]) was 7760 nM each time.

Take `NC1=NC(c2cc(NC(=O)c3ccc(F)cn3)ccc2F)(C(F)F)Cn2ccnc21` (stereo not drawn) [Compound 27]: the IC50 in assay [5] was 589 nM. For the same compound, the “Cellular αlisa assay in SKNBE2 cells Aβ42 pIC50” value in assay [1] (setting [6]) stood at 6.05. The “Cellular αlisa assay in SKNBE2 cells Aβtotal pIC50” value in assay [2] (setting [6]) is 6.11.

As for `CC1(c2cc(-c3cncc(Cl)c3)c(F)cc2F)Cn2ccnc2C(N)=N1` (single isomer, unassigned) [Compound 12], the IC50 was 18600 nM in assay [5], 2340 nM in assay [1] (setting [6]) and 2190 nM in assay [2] (setting [6]).
